{
  "source": "ChEMBL document CHEMBL2331446",
  "about": "“Discovery of a potential anti-inflammatory agent: 3-oxo-29-noroleana-1,9(11),12-trien-2,20-dicarbonitrile” (J Med Chem, 2013)",
  "key": {"Mus musculus [1]": {"tested_on": "Mus musculus", "test": "Antiinflammatory activity in ICR mouse assessed as protection against LPS-induced sepsis at 12.5 to 200 mg/kg, ip administered for 5 days prior to LPS-challenge measured after 2 hrs post last dose", "type": "functional, organism-based"}, "[2]": {"molecular_target": "T1, NF-kappa-B inhibitor alpha (Mus musculus) (UniProt Q9Z1E3)", "T1 sequence (whole entry)": "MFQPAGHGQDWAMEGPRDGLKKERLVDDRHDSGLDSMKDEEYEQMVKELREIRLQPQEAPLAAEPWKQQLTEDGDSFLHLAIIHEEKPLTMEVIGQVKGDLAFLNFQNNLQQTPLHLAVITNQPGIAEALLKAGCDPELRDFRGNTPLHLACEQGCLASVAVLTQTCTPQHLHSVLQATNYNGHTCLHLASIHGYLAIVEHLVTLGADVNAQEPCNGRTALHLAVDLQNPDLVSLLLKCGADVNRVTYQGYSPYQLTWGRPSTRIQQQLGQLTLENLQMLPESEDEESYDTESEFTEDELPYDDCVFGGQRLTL", "test": "Inhibition of IkappaBalpha in mouse RAW264.7 cells assessed as inhibition of LPS-stimulated NF-kappaB p65 subunit translocation to nucleus at 0.1 to 0.4 uM incubated for 2 hrs prior to LPS-challenge measured after 30 mins by Western blot analysis", "type": "cell-based"}, "RAW264.7 [3]": {"tested_on": "RAW264.7", "test": "Effect on ERK level in mouse LPS-induced RAW264.7 cells at 0.1 to 0.4 uM incubated for 2 hrs prior to LPS-challenge measured after 30 mins by Western blot analysis", "type": "functional, cell-based"}, "[4]": {"molecular_target": "T1, NF-kappa-B inhibitor alpha (Mus musculus)", "test": "Inhibition of IkappaB phosphorylation in mouse LPS-induced RAW264.7 cells at 0.1 to 0.4 uM incubated for 2 hrs prior to LPS-challenge measured after 30 mins by Western blot analysis", "type": "cell-based"}, "RAW264.7 [5]": {"tested_on": "RAW264.7", "test": "Antiinflammatory activity in mouse RAW264.7 cells assessed as inhibition of LPS-induced iNOS protein expression incubated for 2 hrs prior to LPS-challenge measured after 24 hrs by Western blot analysis", "type": "functional, cell-based"}, "RAW264.7 [6]": {"tested_on": "RAW264.7", "test": "Ratio of glycyrrhetinic acid to compound activity in mouse RAW264.7 cells", "type": "functional"}, "RAW264.7 [7]": {"tested_on": "RAW264.7", "test": "Antiinflammatory activity in mouse RAW264.7 cells assessed as inhibition of LPS-induced NO production at 50 uM incubated for 2 hrs prior to LPS-challenge measured after 24 hrs by Griess method", "type": "functional"}, "RAW264.7 [8]": {"tested_on": "RAW264.7", "test": "Antiinflammatory activity in mouse RAW264.7 cells assessed as inhibition of LPS-induced NO production incubated for 2 hrs prior to LPS-challenge measured after 24 hrs by Griess method", "type": "functional, cell-based"}, "RAW264.7 [9]": {"tested_on": "RAW264.7", "test": "Effect on MAPK p38 level in mouse LPS-induced RAW264.7 cells at 0.1 to 0.4 uM incubated for 2 hrs prior to LPS-challenge measured after 30 mins by Western blot analysis", "type": "functional, cell-based"}, "RAW264.7 [10]": {"tested_on": "RAW264.7", "test": "Inhibition of ERK phosphorylation in mouse LPS-induced RAW264.7 cells at 0.1 to 0.4 uM incubated for 2 hrs prior to LPS-challenge measured after 30 mins by Western blot analysis", "type": "cell-based"}, "RAW264.7 [11]": {"tested_on": "RAW264.7", "test": "Antiinflammatory activity in mouse RAW264.7 cells assessed as inhibition of LPS-stimulated IL-6 mRNA expression at 0.1 to 0.4 uM incubated for 2 hrs prior to LPS-challenge measured after 8 hrs by quantitative real time PCR analysis", "type": "functional, cell-based"}, "RAW264.7 [12]": {"tested_on": "RAW264.7", "test": "Inhibition of JNK phosphorylation in mouse LPS-induced RAW264.7 cells at 0.1 to 0.4 uM incubated for 2 hrs prior to LPS-challenge measured after 30 mins by Western blot analysis", "type": "cell-based"}, "RAW264.7 [13]": {"tested_on": "RAW264.7", "test": "Antiinflammatory activity in mouse RAW264.7 cells assessed as inhibition of LPS-induced iNOS mRNA expression at 0.1 to 0.4 uM incubated for 2 hrs prior to LPS-challenge measured after 8 hrs by qPCR analysis", "type": "functional, cell-based"}, "[14]": {"molecular_target": "MAP kinase p38 (Mus musculus) (UniProt P47811+O08911+Q9WUI1+Q9Z1B7)", "test": "Inhibition of MAPK p38 in mouse LPS-induced RAW264.7 cells at 0.1 to 0.4 uM incubated for 2 hrs prior to LPS-challenge measured after 30 mins by Western blot analysis", "type": "cell-based"}, "[15]": {"molecular_target": "T1, NF-kappa-B inhibitor alpha (Mus musculus)", "test": "Inhibition of IkappaBalpha degradation in mouse LPS-induced RAW264.7 cells assessed as increase in cytosolic IkappaB level at 0.1 to 0.4 uM incubated for 2 hrs prior to LPS-challenge measured after 30 mins by Western blot analysis", "type": "cell-based"}, "RAW264.7 [16]": {"tested_on": "RAW264.7", "test": "Cytotoxicity against mouse LPS-challenged RAW264.7 cells at 80 uM after 24 hrs by MTT assay", "type": "cell-based", "settings": "raw264.7, 24 h"}, "RAW264.7 [17]": {"tested_on": "RAW264.7", "test": "Antiinflammatory activity in mouse RAW264.7 cells assessed as inhibition of LPS-stimulated TNF-alpha mRNA expression at 0.2 to 0.4 uM incubated for 2 hrs prior to LPS-challenge measured after 8 hrs by quantitative real time PCR analysis", "type": "functional, cell-based"}, "RAW264.7 [18]": {"tested_on": "RAW264.7", "test": "Cytotoxicity against mouse RAW264.7 cells at 80 uM after 24 hrs by MTT assay", "type": "cell-based", "settings": "raw264.7, 24 h"}, "Mus musculus [19]": {"tested_on": "Mus musculus", "test": "Antiinflammatory activity in ICR mouse assessed as protection against LPS-induced sepsis at 50 mg/kg, ip administered for 5 days prior to LPS-challenge measured after 2 hrs", "type": "functional, organism-based", "design": "dose 50 mg/kg"}, "Mus musculus [20]": {"tested_on": "Mus musculus", "test": "Antiinflammatory activity in ICR mouse assessed as reversal in LPS-induced weight loss at 12.5 to 200 mg/kg, ip administered for 5 days prior to LPS-challenge measured up to day 8 relative to control", "type": "functional, organism-based"}, "RAW264.7 [21]": {"tested_on": "RAW264.7", "test": "Antiinflammatory activity in mouse RAW264.7 cells assessed as inhibition of NO production after 24 hrs in presence of mifepristone", "type": "functional, cell-based"}, "Mus musculus [22]": {"tested_on": "Mus musculus", "test": "Antiinflammatory activity in ICR mouse assessed as reversal in LPS-induced weight loss at 12.5 to 200 mg/kg, ip administered for 5 days prior to LPS-challenge measured from day 9 to 11 relative to control", "type": "functional, organism-based"}, "RAW264.7 [23]": {"tested_on": "RAW264.7", "test": "Antiinflammatory activity in mouse RAW264.7 cells assessed as inhibition of LPS-stimulated IL-1beta mRNA expression at 0.1 to 0.4 uM incubated for 2 hrs prior to LPS-challenge measured after 8 hrs by quantitative real time PCR analysis", "type": "functional, cell-based"}, "RAW264.7 [24]": {"tested_on": "RAW264.7", "test": "Antiinflammatory activity in mouse RAW264.7 cells assessed as inhibition of LPS-stimulated IL-6 mRNA expression incubated for 2 hrs prior to LPS-challenge measured after 8 hrs by quantitative real time PCR analysis relative to control", "type": "functional, cell-based"}, "RAW264.7 [25]": {"tested_on": "RAW264.7", "test": "Effect on JNK level in mouse LPS-induced RAW264.7 cells at 0.1 to 0.4 uM incubated for 2 hrs prior to LPS-challenge measured after 30 mins by Western blot analysis", "type": "functional, cell-based"}},
  "note": "The source made the active and inactive calls. The rule behind the calls is not given here.",
  "data": [
    {"molecule": "CC1(C)C(=O)C(C#N)=C[C@]2(C)C3=CC=C4[C@@H]5C[C@@](C)(C#N)CC[C@]5(C)CC[C@@]4(C)[C@]3(C)CC[C@@H]12", "values": [
      {"measurement": "Activity", "setting": "Mus musculus [1]", "value": "inactive"},
      {"measurement": "inhibition", "setting": "[2]", "value": "Active"},
      {"measurement": "Activity", "setting": "RAW264.7 [3]", "value": "inactive"},
      {"measurement": "inhibition", "setting": "[4]", "value": "Active"},
      {"measurement": "inhibition", "setting": "RAW264.7 [5]", "value": "Dose-dependent effect"},
      {"measurement": "Ratio", "setting": "RAW264.7 [6]", "value": 1000},
      {"measurement": "inhibition at 50 µM", "setting": "RAW264.7 [7]", "value": 99.1, "unit": "%"},
      {"measurement": "IC50", "setting": "RAW264.7 [8]", "value": 200, "unit": "nM"},
      {"measurement": "Activity", "setting": "RAW264.7 [9]", "value": "inactive"},
      {"measurement": "inhibition", "setting": "RAW264.7 [10]", "value": "Active"},
      {"measurement": "inhibition", "setting": "RAW264.7 [11]", "value": "Dose-dependent effect"},
      {"measurement": "inhibition", "setting": "RAW264.7 [12]", "value": "Active"},
      {"measurement": "inhibition", "setting": "RAW264.7 [13]", "value": "Active"},
      {"measurement": "inhibition", "setting": "[14]", "value": "Active"},
      {"measurement": "inhibition", "setting": "[15]", "value": "Active"},
      {"measurement": "Activity", "setting": "RAW264.7 [16]", "value": "Non-toxic"},
      {"measurement": "inhibition", "setting": "RAW264.7 [17]", "value": "Active"},
      {"measurement": "Activity", "setting": "RAW264.7 [18]", "value": "Non-toxic"},
      {"measurement": "Activity", "setting": "Mus musculus [19]", "value": "Active"},
      {"measurement": "Activity", "setting": "Mus musculus [20]", "value": "inactive"},
      {"measurement": "inhibition", "setting": "RAW264.7 [21]", "value": "Active"},
      {"measurement": "Activity", "setting": "Mus musculus [22]", "value": "Active"},
      {"measurement": "inhibition", "setting": "RAW264.7 [23]", "value": "Dose-dependent effect"},
      {"measurement": "inhibition", "setting": "RAW264.7 [24]", "value": "inactive"},
      {"measurement": "Activity", "setting": "RAW264.7 [25]", "value": "inactive"}
    ]}
  ]
}
